The subject of this series is CCRIS mutagenicity, Ames/micronucleus/aberration tests. Kind of series: CCRIS mutagenicity studies.
Where [1] appears, read: Test System: AMES SALMONELLA TYPHIMURIUM, Strain/Indicator: TA98, Metabolic Activation: NONE, Method: PREINCUBATION
Where [2] appears, read: Test System: AMES SALMONELLA TYPHIMURIUM, Strain/Indicator: TA100, Metabolic Activation: NONE, Method: PREINCUBATION
Where [3] appears, read: Test System: AMES SALMONELLA TYPHIMURIUM, Strain/Indicator: TA98, Metabolic Activation: NONE, Method: STANDARD PLATE.
Where [4] appears, read: Test System: AMES SALMONELLA TYPHIMURIUM, Strain/Indicator: TA100, Metabolic Activation: NONE, Method: STANDARD PLATE.

Each structure is given as a SMILES string. Activity calls are given as the source filed them. How the calls were made is not given here.

Turning to `CCOc1cccc(N)c1`, the mutagenic call (Test System: AMES SALMONELLA TYPHIMURIUM, Strain/Indicator: TA97, Metabolic Activation: HAMSTER, LIVER, S-9, AROCLOR 1254 (30%), Method: PREINCUBATION) was “inactive; negative”; the mutagenic call (Test System: AMES SALMONELLA TYPHIMURIUM, Strain/Indicator: TA98, Metabolic Activation: HAMSTER, LIVER, S-9, AROCLOR 1254 (5 OR 10%), Method: PREINCUBATION) is “inactive; negative”; the mutagenic call (Test System: AMES SALMONELLA TYPHIMURIUM, Strain/Indicator: TA98, Metabolic Activation: HAMSTER, LIVER, S-9, AROCLOR 1254 (30%), Method: PREINCUBATION) is “inactive; negative”; the mutagenic call under setting [1] was “inactive; negative”; the mutagenic call (Test System: AMES SALMONELLA TYPHIMURIUM, Strain/Indicator: TA98, Metabolic Activation: RAT, LIVER, S-9, AROCLOR 1254 (5 OR 10%), Method: PREINCUBATION) is “inactive; negative”; the mutagenic call (Test System: AMES SALMONELLA TYPHIMURIUM, Strain/Indicator: TA98, Metabolic Activation: RAT, LIVER, S-9, AROCLOR 1254 (30%), Method: PREINCUBATION) is “inactive; negative”. Further, the mutagenic call was “inactive; negative” (Test System: AMES SALMONELLA TYPHIMURIUM, Strain/Indicator: TA100, Metabolic Activation: HAMSTER, LIVER, S-9, AROCLOR 1254 (5, 10 OR 30%), Method: PREINCUBATION); “inactive; negative” under setting [2]; “inactive; negative” (Test System: AMES SALMONELLA TYPHIMURIUM, Strain/Indicator: TA100, Metabolic Activation: RAT, LIVER, S-9, AROCLOR 1254 (5, 10 OR 30%), Method: PREINCUBATION); “inactive; negative” (Test System: AMES SALMONELLA TYPHIMURIUM, Strain/Indicator: TA1535, Metabolic Activation: HAMSTER, LIVER, S-9, AROCLOR 1254 (5, 10 OR 30%), Method: PREINCUBATION); “inactive; negative” (Test System: AMES SALMONELLA TYPHIMURIUM, Strain/Indicator: TA1535, Metabolic Activation: RAT, LIVER, S-9, AROCLOR 1254 (5, 10 OR 30%), Method: PREINCUBATION).
Consider `CO[C@@H]1[C@H](O)C[C@@H](O[C@@H]2C[C@H](Oc3cc4cc5c(c(O)c4c(O)c3C)C(=O)[C@@H](O[C@H]3C[C@@H](O[C@H]4C[C@@H](O[C@H]6C[C@](C)(O)[C@@H](OC(C)=O)[C@H](C)O6)[C@H](O)[C@@H](C)O4)[C@H](O)[C@@H](C)O3)[C@H]([C@H](OC)C(=O)[C@@H](O)[C@@H](C)O)C5)O[C@H](C)[C@@H]2OC(C)=O)O[C@@H]1C`, for which the mutagenic call is, setting by setting: under setting [3], “inactive; negative”; under setting [4], “inactive; negative”; (Test System: CHINESE HAMSTER OVARY, Strain/Indicator: CHO (HGPRT)/6-THIOGUANINE, Metabolic Activation: NONE, Method: PREINCUBATION) “active; positive”; (Test System: E. COLI, Strain/Indicator: WP2 (HCR), Metabolic Activation: NONE, Method: STANDARD PLATE) “inactive; negative”.
On to `O=C(O)c1ccc(S(=O)(=O)N(Cl)Cl)cc1`, for which the mutagenic call is, setting by setting: (Test System: AMES SALMONELLA TYPHIMURIUM, Strain/Indicator: TA98, Metabolic Activation: HAMSTER, LIVER, S-9, AROCLOR 1254 (10%), Method: PREINCUBATION) “inactive; negative”; under setting [1], “inactive; negative”; (Test System: AMES SALMONELLA TYPHIMURIUM, Strain/Indicator: TA98, Metabolic Activation: RAT, LIVER, S-9, AROCLOR 1254 (10%), Method: PREINCUBATION) “inactive; negative”; (Test System: AMES SALMONELLA TYPHIMURIUM, Strain/Indicator: TA100, Metabolic Activation: HAMSTER, LIVER, S-9, AROCLOR 1254 (10%), Method: PREINCUBATION) “inactive; negative”; under setting [2], “inactive; negative”; (Test System: AMES SALMONELLA TYPHIMURIUM, Strain/Indicator: TA100, Metabolic Activation: RAT, LIVER, S-9, AROCLOR 1254 (10%), Method: PREINCUBATION) “inactive; negative”. Besides, the mutagenic call runs as follows: (Test System: AMES SALMONELLA TYPHIMURIUM, Strain/Indicator: TA1535, Metabolic Activation: HAMSTER, LIVER, S-9, AROCLOR 1254 (10%), Method: PREINCUBATION) “inactive; negative”; (Test System: AMES SALMONELLA TYPHIMURIUM, Strain/Indicator: TA1535, Metabolic Activation: NONE, Method: PREINCUBATION) “inactive; negative”; (Test System: AMES SALMONELLA TYPHIMURIUM, Strain/Indicator: TA1535, Metabolic Activation: RAT, LIVER, S-9, AROCLOR 1254 (10%), Method: PREINCUBATION) “inactive; negative”; (Test System: AMES SALMONELLA TYPHIMURIUM, Strain/Indicator: TA1537, Metabolic Activation: HAMSTER, LIVER, S-9, AROCLOR 1254 (10%), Method: PREINCUBATION) “inactive; negative”; (Test System: AMES SALMONELLA TYPHIMURIUM, Strain/Indicator: TA1537, Metabolic Activation: NONE, Method: PREINCUBATION) “inactive; negative”; (Test System: AMES SALMONELLA TYPHIMURIUM, Strain/Indicator: TA1537, Metabolic Activation: RAT, LIVER, S-9, AROCLOR 1254 (10%), Method: PREINCUBATION) “inactive; negative”.
Take `C1=CC2OC2C=C1` (stereo not drawn): the mutagenic call is “inactive; negative” under setting [3]; “inactive; negative” (Test System: AMES SALMONELLA TYPHIMURIUM, Strain/Indicator: TA98, Metabolic Activation: RAT, LIVER, S-9, PHENOBARBITAL, Method: STANDARD PLATE); “inactive; negative” under setting [2]; “inactive; negative” under setting [4]; “active; positive” (Test System: AMES SALMONELLA TYPHIMURIUM, Strain/Indicator: TA100, Metabolic Activation: RAT, LIVER, S-9, PHENOBARBITAL, Method: PREINCUBATION); “active; positive” (Test System: AMES SALMONELLA TYPHIMURIUM, Strain/Indicator: TA100, Metabolic Activation: RAT, LIVER, S-9, PHENOBARBITAL, Method: STANDARD PLATE). In addition, the mutagenic call is, setting by setting: (Test System: AMES SALMONELLA TYPHIMURIUM, Strain/Indicator: TA1535, Metabolic Activation: NONE, Method: STANDARD PLATE) “inactive; negative”; (Test System: AMES SALMONELLA TYPHIMURIUM, Strain/Indicator: TM677/8-AZAGUANINE, Metabolic Activation: NONE, Method: PREINCUBATION) “inactive; negative”; (Test System: AMES SALMONELLA TYPHIMURIUM, Strain/Indicator: TM677/8-AZAGUANINE, Metabolic Activation: NONE, Method: STANDARD PLATE) “inactive; negative”; (Test System: AMES SALMONELLA TYPHIMURIUM, Strain/Indicator: TM677, Metabolic Activation: RAT, LIVER, S-9, PHENOBARBITAL, Method: PREINCUBATION) “active; positive”.
On to `O=C(/C=C/c1ccc([N+](=O)[O-])o1)N/N=C/c1ccc([N+](=O)[O-])o1`, for which the mutagenic call (Test System: AMES SALMONELLA TYPHIMURIUM, Strain/Indicator: TA98(1,8-DNP6), Metabolic Activation: NONE, Method: STANDARD PLATE) was “active; positive”; the mutagenic call (Test System: AMES SALMONELLA TYPHIMURIUM, Strain/Indicator: TA98(1,8-DNP6), Metabolic Activation: RAT, LIVER, S-9, 3-METHYLCHOLANTHRENE, Method: STANDARD PLATE) was “active; positive”; the mutagenic call (Test System: AMES SALMONELLA TYPHIMURIUM, Strain/Indicator: TA98(NR), Metabolic Activation: NONE, Method: STANDARD PLATE) was “active; positive”; the mutagenic call (Test System: AMES SALMONELLA TYPHIMURIUM, Strain/Indicator: TA98(NR), Metabolic Activation: RAT, LIVER, S-9, 3-METHYLCHOLANTHRENE, Method: STANDARD PLATE) was “active; positive”; the mutagenic call under setting [3] was “active; positive”; the mutagenic call (Test System: AMES SALMONELLA TYPHIMURIUM, Strain/Indicator: TA98, Metabolic Activation: RAT, LIVER, S-9, 3-METHYLCHOLANTHRENE, Method: STANDARD PLATE) is “active; positive”.
`Cc1ccc(S(=O)(=O)OC[C@H]2CO2)cc1`: the mutagenic call is, setting by setting: under setting [2], “active; positive”; under setting [4], “active; positive”; (Test System: AMES SALMONELLA TYPHIMURIUM, Strain/Indicator: TA100, Metabolic Activation: RAT, LIVER, S-9, PCB, Method: PREINCUBATION) “active; positive”.
For the compound `Cc1cc(=O)oc2c3c4c(cc12)CCCN4CCC3`, the mutagenic call was “inactive; negative” (Test System: AMES SALMONELLA TYPHIMURIUM, Strain/Indicator: TA1538, Metabolic Activation: NONE, Method: STANDARD PLATE) and “active; positive” (Test System: AMES SALMONELLA TYPHIMURIUM, Strain/Indicator: TA1538, Metabolic Activation: RAT, LIVER, S-9, AROCLOR 1254, Method: STANDARD PLATE).

The record behind these values is PubChem BioAssay AID1259407 (Chemical Carcinogenesis Research Information System (CCRIS), 2018).
